The results in this text go back to BindingDB's records for doi:10.7270/Q2MP51PC (Pcmd, 2008).

A value given as a limit tells only on which side of the number the result lay.

This assay concerns the target T1, Complement C1s subcomponent (Homo sapiens, UniProt P09871).
T1 sequence (P09871 whole entry): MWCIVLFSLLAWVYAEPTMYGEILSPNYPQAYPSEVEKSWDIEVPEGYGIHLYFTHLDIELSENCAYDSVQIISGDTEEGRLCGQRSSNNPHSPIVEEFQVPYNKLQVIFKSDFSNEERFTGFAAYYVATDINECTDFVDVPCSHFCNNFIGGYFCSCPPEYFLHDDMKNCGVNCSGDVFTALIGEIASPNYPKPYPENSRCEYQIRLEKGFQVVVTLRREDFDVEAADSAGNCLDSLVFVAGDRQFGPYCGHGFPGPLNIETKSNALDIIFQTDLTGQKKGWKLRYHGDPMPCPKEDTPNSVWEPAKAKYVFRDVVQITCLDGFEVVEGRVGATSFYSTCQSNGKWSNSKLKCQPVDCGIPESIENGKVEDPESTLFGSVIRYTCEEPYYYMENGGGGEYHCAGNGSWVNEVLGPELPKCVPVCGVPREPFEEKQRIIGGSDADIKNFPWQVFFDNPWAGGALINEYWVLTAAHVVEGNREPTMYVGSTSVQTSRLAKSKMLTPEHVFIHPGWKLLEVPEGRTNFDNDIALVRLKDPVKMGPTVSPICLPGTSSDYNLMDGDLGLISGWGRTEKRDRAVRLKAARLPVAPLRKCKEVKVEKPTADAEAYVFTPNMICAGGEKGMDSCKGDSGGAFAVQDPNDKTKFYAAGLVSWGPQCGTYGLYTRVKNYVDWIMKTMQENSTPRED
Put plainly: C1s inhibitor IC50 values, dose response, biochemical (AID 787).
Turning to `COC(=O)c1ccc(OC(=O)c2ccco2)cc1` [Furan-2-carboxylic acid 4-methoxycarbonyl-phenyl ester], the IC50 was found to be 17.1 µM.

In turn, `Cc1coc2c(C)c3oc(=O)c4c(c3cc12)CCCC4` [7,10-dimethyl-1,2,3,4-tetrahydro-[1]benzofuro[6,5-c]isochromen-5-one] returned an IC50 greater than 50 µM. Take `Cc1cc(NC(=O)c2cc3nc(C4CC4)cc(C(F)(F)F)n3n2)no1` [5-cyclopropyl-N-(5-methyl-1,2-oxazol-3-yl)-7-(trifluoromethyl)pyrazolo[1,5-a]pyrimidine-2-carboxamide]: the half-inhibitory concentration (IC50) was greater than 50 µM. With `O=C(Cc1ccc(-c2ccccc2)cc1)NCCN1CCOCC1` [2-Biphenyl-4-yl-N-(2-morpholin-4-yl-ethyl)-acetamide] the figure was greater than 50 µM; with `CCc1ccc(C2CC(c3ccccc3Cl)Nc3nc(N)nn32)cc1` (stereo unspecified) [5-(2-chlorophenyl)-7-(4-ethylphenyl)-1,5,6,7-tetrahydro-[1,2,4]triazolo[1,5-a]pyrimidin-2-amine], greater than 50 µM.

On to `COCCCNC(CC(=O)Nc1ccccc1C(=O)OC)C(=O)O` (stereo unspecified) [4-(2-carbomethoxyanilino)-4-keto-2-(3-methoxypropylamino)butyric acid], for which the 50% inhibitory concentration (IC50) is greater than 50 µM. As for `COCCn1c(C)cc(C(=O)CSc2nc3ccccc3o2)c1C` [2-(1,3-benzoxazol-2-ylsulfanyl)-1-[1-(2-methoxyethyl)-2,5-dimethyl-pyrrol-3-yl]ethanone], the IC50 was greater than 50 µM.

The compound `Cc1cc(C)c2c(CC(=O)NCc3ccco3)coc2c1` [2-(4,6-dimethyl-1-benzofuran-3-yl)-N-(2-furylmethyl)acetamide] showed a 50% inhibitory concentration (IC50) greater than 50 µM. In the case of `CN(C)c1ccc(C(=O)c2ccccc2C(=O)O)c(O)c1` [2-(4-Dimethylamino-2-hydroxy-benzoyl)-benzoic acid] it was greater than 50 µM; in that of `O=C1CCCC(=O)C1=CNCCc1ccccc1` [MLS000108318], greater than 50 µM.

On to `Cc1nc(CNS(=O)(=O)c2cc(C)c(C)cc2C)cs1` [2,4,5-trimethyl-N-[(2-methyl-1,3-thiazol-4-yl)methyl]benzenesulfonamide], for which the IC50 is greater than 50 µM. With `COc1ccc(C(=O)n2nc(-c3ccco3)nc2SC)cc1OC` [(3,4-dimethoxyphenyl)-[3-(2-furanyl)-5-(methylthio)-1,2,4-triazol-1-yl]methanone], the IC50 turned out to be 2.37 µM. With `COc1cc(C(Nc2ccccn2)c2ccc3ccc(C)nc3c2O)cc(OC)c1O` (stereo unspecified) [7-[(3,5-dimethoxy-4-oxidanyl-phenyl)-(pyridin-2-ylamino)methyl]-2-methyl-quinolin-8-ol] the figure was greater than 50 µM; with `Nc1nc(C(=O)N2CCOCC2)nn1C(=O)c1ccc(Cl)cc1` [(5-azanyl-3-morpholin-4-ylcarbonyl-1,2,4-triazol-1-yl)-(4-chlorophenyl)methanone], 12.1 µM.

In turn, `Cc1ccc(Cn2ncc3c(N4CCN(c5ccccc5C)CC4)ncnc32)cc1` [1-(4-methylbenzyl)-4-[4-(2-methylphenyl)-1-piperazinyl]-1H-pyrazolo[3,4-d]pyrimidine] showed an IC50 greater than 50 µM. On to `COc1ccc(S(=O)(=O)N2CCOCC2)cc1C(=O)Nc1nc2ccccc2s1` [MLS000088961], for which the half-inhibitory concentration (IC50) is greater than 50 µM. With `O=c1cc(-c2ccccc2)[nH]c2nc(-c3ccccc3)nn12` [MLS000037061] the figure was greater than 50 µM. In the case of `COc1ccccc1/N=C/c1nc(-c2ccccc2)oc1OC(C)=O` [SMR000039734] it was greater than 50 µM. In the case of `CCCC(=O)Nc1ccc(C(=O)n2nnc3ccccc32)cc1` [N-[4-(1H-1,2,3-benzotriazol-1-ylcarbonyl)phenyl]butanamide] it was 0.38 µM; in that of `CCOC(=O)COc1ccc(S(=O)(=O)NCCC2=CCCCC2)cc1` [2-[4-[2-(1-cyclohexenyl)ethylsulfamoyl]phenoxy]acetic acid ethyl ester], greater than 50 µM. Consider `N#Cc1cnn(CC2CCCCC2)c1N` [5-amino-1-(cyclohexylmethyl)-4-pyrazolecarbonitrile], for which the IC50 is greater than 50 µM.

The term IC50 denotes the concentration that gives 50% inhibition.
